Reference: PubChem BioAssay (NCI)
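Cells were grown in 96-well plates and exposed to each compound for 48 hours at five concentrations; endpoints were interpolated linearly between bracketing concentrations, or set to the highest concentration if not reached. At the GI50, growth is halved. TGI denotes the concentration required for complete inhibition of growth.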

Experiments:
Assay in all cases: inhibition of tumour cell growth, NCI panel, 48 h
SN12C renal = tested on: SN12C renal
MOLT-4 leukemia = tested on: MOLT-4 leukemia
KM12 colon = tested on: KM12 colon
MDA-MB-435 = tested on: MDA-MB-435
T-47D breast = tested on: T-47D breast
HCC-2998 colon = tested on: HCC-2998 colon
LOX IMVI melanoma = tested on: LOX IMVI melanoma
OVCAR-5 ovarian = tested on: OVCAR-5 ovarian
HL-60(TB) leukemia = tested on: HL-60(TB) leukemia
UACC-257 melanoma = tested on: UACC-257 melanoma
SF-268 CNS = tested on: SF-268 CNS
U251 CNS = tested on: U251 CNS
HOP-62 NSCLC = tested on: HOP-62 NSCLC
OVCAR-8 ovarian = tested on: OVCAR-8 ovarian
SK-MEL-28 melanoma = tested on: SK-MEL-28 melanoma
HT29 colon = tested on: HT29 colon
NCI-H522 lung = tested on: NCI-H522 lung
MCF7 breast = tested on: MCF7 breast
SNB-19 CNS = tested on: SNB-19 CNS
HCT-15 colon = tested on: HCT-15 colon
A549 NSCLC = tested on: A549 NSCLC
M14 melanoma = tested on: M14 melanoma
ACHN renal = tested on: ACHN renal
MALME-3M melanoma = tested on: MALME-3M melanoma
COLO 205 colon = tested on: COLO 205 colon
SF-539 CNS = tested on: SF-539 CNS
MDA-MB-231 breast = tested on: MDA-MB-231 breast
SF-295 CNS = tested on: SF-295 CNS
SW-620 colon = tested on: SW-620 colon
HCT-116 colon = tested on: HCT-116 colon
CCRF-CEM leukemia = tested on: CCRF-CEM leukemia
K-562 leukemia = tested on: K-562 leukemia
CAKI-1 renal = tested on: CAKI-1 renal
UO-31 renal = tested on: UO-31 renal
UACC-62 melanoma = tested on: UACC-62 melanoma
TK-10 renal = tested on: TK-10 renal
OVCAR-4 ovarian = tested on: OVCAR-4 ovarian
EKVX NSCLC = tested on: EKVX NSCLC
NCI-H23 lung = tested on: NCI-H23 lung
DU-145 prostate = tested on: DU-145 prostate
NCI/ADR-RES ovarian = tested on: NCI/ADR-RES ovarian
PC-3 prostate = tested on: PC-3 prostate
SK-OV-3 ovarian = tested on: SK-OV-3 ovarian
SNB-75 CNS = tested on: SNB-75 CNS
RPMI-8226 leukemia = tested on: RPMI-8226 leukemia
BT-549 breast = tested on: BT-549 breast
HOP-92 NSCLC = tested on: HOP-92 NSCLC
NCI-H226 lung = tested on: NCI-H226 lung
A498 renal = tested on: A498 renal
IGROV1 ovarian = tested on: IGROV1 ovarian
RXF 393 renal = tested on: RXF 393 renal
HS 578T breast = tested on: HS 578T breast
NCI-H460 lung = tested on: NCI-H460 lung
OVCAR-3 ovarian = tested on: OVCAR-3 ovarian
SK-MEL-2 melanoma = tested on: SK-MEL-2 melanoma
SK-MEL-5 melanoma = tested on: SK-MEL-5 melanoma
786-0 renal = tested on: 786-0 renal

## O=[N+]([O-])c1ccc(NC(c2ccccc2)c2ccc3cccnc3c2O)cc1 (stereo unspecified)
SN12C renal
  GI50: 935 nM
  TGI: > 100000 nM
MOLT-4 leukemia
  GI50: 344 nM
  TGI: > 100000 nM
KM12 colon
  GI50: 449 nM
  TGI: > 100000 nM
MDA-MB-435
  GI50: 422 nM
  TGI: > 100000 nM
T-47D breast
  GI50: 633 nM
  TGI: > 100000 nM
HCC-2998 colon
  GI50: 418 nM
  TGI: > 100000 nM
LOX IMVI melanoma
  GI50: 293 nM
OVCAR-5 ovarian
  GI50: 1770 nM
  TGI: > 100000 nM
HL-60(TB) leukemia
  GI50: 334 nM
  TGI: 1470 nM
UACC-257 melanoma
  GI50: 548 nM
  TGI: 6670 nM
SF-268 CNS
  GI50: 378 nM
  TGI: > 100000 nM
U251 CNS
  GI50: 418 nM
  TGI: > 100000 nM
HOP-62 NSCLC
  GI50: 537 nM
  TGI: > 100000 nM
OVCAR-8 ovarian
  GI50: 435 nM
  TGI: > 100000 nM
SK-MEL-28 melanoma
  GI50: 697 nM
  TGI: > 100000 nM
HT29 colon
  GI50: 487 nM
  TGI: > 100000 nM
NCI-H522 lung
  GI50: 392 nM
  TGI: > 100000 nM
MCF7 breast
  GI50: 335 nM
  TGI: > 100000 nM
SNB-19 CNS
  GI50: 551 nM
  TGI: > 100000 nM
HCT-15 colon
  GI50: 326 nM
  TGI: > 100000 nM
A549 NSCLC
  GI50: 878 nM
  TGI: > 100000 nM
M14 melanoma
  GI50: 308 nM
  TGI: > 100000 nM
ACHN renal
  GI50: 351 nM
  TGI: > 89900 nM
MALME-3M melanoma
  GI50: 826 nM
  TGI: > 100000 nM
COLO 205 colon
  GI50: 448 nM
  TGI: > 100000 nM
SF-539 CNS
  GI50: 499 nM
  TGI: > 31900 nM
MDA-MB-231 breast
  GI50: 696 nM
  TGI: > 100000 nM
SF-295 CNS
  GI50: 314 nM
  TGI: > 100000 nM
SW-620 colon
  GI50: 389 nM
  TGI: > 100000 nM
HCT-116 colon
  GI50: 310 nM
  TGI: > 55900 nM
CCRF-CEM leukemia
  GI50: 246 nM
  TGI: 7970 nM
K-562 leukemia
  GI50: 376 nM
  TGI: > 100000 nM
CAKI-1 renal
  GI50: 312 nM
UO-31 renal
  GI50: 297 nM
  TGI: > 31400 nM
UACC-62 melanoma
  GI50: 510 nM
  TGI: > 100000 nM
TK-10 renal
  GI50: 932 nM
  TGI: > 100000 nM
OVCAR-4 ovarian
  GI50: 331 nM
  TGI: > 100000 nM
EKVX NSCLC
  GI50: 393 nM
  TGI: > 100000 nM
NCI-H23 lung
  GI50: 414 nM
  TGI: > 100000 nM
DU-145 prostate
  GI50: 483 nM
  TGI: > 100000 nM
NCI/ADR-RES ovarian
  GI50: 288 nM
  TGI: > 23400 nM
PC-3 prostate
  GI50: 586 nM
  TGI: > 100000 nM
SK-OV-3 ovarian
  GI50: 500 nM
  TGI: > 100000 nM
SNB-75 CNS
  GI50: 1630 nM
  TGI: > 100000 nM
RPMI-8226 leukemia
  GI50: 313 nM
  TGI: > 100000 nM
BT-549 breast
  GI50: 601 nM
  TGI: 43200 nM
HOP-92 NSCLC
  GI50: 234 nM
  TGI: > 100000 nM
NCI-H226 lung
  GI50: 505 nM
  TGI: 9190 nM
A498 renal
  GI50: 634 nM
  TGI: 8130 nM
IGROV1 ovarian
  GI50: 388 nM
  TGI: > 51500 nM
RXF 393 renal
  GI50: 698 nM
  TGI: > 100000 nM
HS 578T breast
  GI50: 520 nM
  TGI: > 100000 nM
NCI-H460 lung
  GI50: 253 nM
  TGI: 1390 nM
OVCAR-3 ovarian
  GI50: 450 nM
  TGI: > 100000 nM
SK-MEL-2 melanoma
  GI50: 943 nM
  TGI: > 100000 nM
SK-MEL-5 melanoma
  GI50: 400 nM
  TGI: 3120 nM
786-0 renal
  GI50: 363 nM
